From patent US20190015400A1, “Antifungal Compositions” (priority 2017, published 2019) come the findings set out here.

For data set [1], the system named is C. albicans ATCC 10231 (strain B). Put plainly: Time-kill assay, POS and EBA. To be noted: POS + EBA combination at 1×MIC. It is filed as cell-based, Candida albicans. Here is the method: (§1) The protocol for time-kill assays followed methods previously described with minor modifications. Yeast cultures were grown overnight in YEPD medium at 35° C. with shaking at 200 rpm. A working stock of fungal cells was made by diluting cultures in 1640 medium to an OD600 of 0.125 (˜1×10^6 CFU/mL). From the working stock, 100 μL of cells was added to 4.9 mL of RPMI 1640 medium in sterile culture tubes, making the starting fungal cell concentration ˜1×10^5 CFU/mL. Drug was then added to the fungal cells. […] Treated fungal cultures were incubated in the culture tubes at 35° C. with 200 rpm shaking for 24 h. Samples were aliquoted from the different treatments at regular time points (0, 3, 6, 9, 12, and 24 h) and plated in duplicate. For each time point, cultures were vortexed, 100 μL of culture was aspirated, and 10-fold serial dilutions were made in sterile ddH2O. From the appropriate dilutions, 100 μL of fungal suspension was spread on PDA plates and incubated at 35° C. for 48 h before colony counts were determined. At 24 h, 50 μL of 1 mM resazurin in phosphate buffered saline (PBS) was added to the treatments and incubated at 35° C. with 200 rpm shaking for 2 h in the dark for visual inspection. […] Experiments were performed in duplicate.

In the next data set the test system is HEK-293 cells. Put plainly: Mammalian cytotoxicity (resazurin cell viability), POS and EBA. It is filed as cell-based, human. Particulars: EBA alone at 25 μg/mL. The procedure:
(§2) To examine whether the inhibitory effect of the antifungal and antihistamine combinations is specific to fungal cells, the combinations were tested with 4 mammalian cell lines: A459, BEAS-2B, HEK-293, and HaCaT. […] The assays were done in 96-well plates. A549 and BEAS-2B cells were plated at a density of 3×10^3 cells/mL, HaCaT were plated at 2×10^4 cells/mL, and HEK-293 cells were plated at 1×10^4 cells/mL as determined by using a hemacytometer. […] All assays were done in quadruplicate.
Background: Alamar Blue is a resazurin reagent that responds to reducing activity.

For a further data set, the system named is HaCaT cells. Described as above. It is filed as cell-based, human. To be noted: EBA alone at 25 μg/mL. Here is the method: as §2
In a further data set the test system is BEAS-2B cells. The description is as above. It is filed as cell-based, human. To be noted: EBA alone at 25 μg/mL. The procedure:
as §2

Another data set deals with A549 cells. The description is as above. It is filed as cell-based, human. To be noted: EBA alone at 25 μg/mL. The procedure: as §2
For data set [2], the system named is C. glabrata ATCC 2001 (strain H). The data set is described as follows: Time-kill assay, POS and EBA. It is filed as cell-based, Candida glabrata. To be noted: POS + EBA combination at 1×MIC. The procedure: as §1
For data set [3] the test system is unchanged. The data set is described as follows: MIC and checkerboard assay, azoles + antihistamines. It is filed as cell-based, Candida glabrata. To be noted: in combination with POS. Here is the method:
Determination of minimum inhibitory concentration (MIC) values. MIC values were recorded for all antifungals and antihistamines in order to determine the concentration range of compounds to be used in the checkerboard assays.
The MIC assays were done using the broth microdilution method as described in CLSI document M27-A3 with minor modifications. Yeast cultures were started by picking a colony from a PDA plate stored at 4° C. The colonies were grown in YEPD medium overnight at 35° C. with shaking at 200 rpm. In a 96-well plate compounds were diluted lengthwise along the plate in serial 2-fold dilutions in the RPMI 1640 medium. The yeast cultures were diluted in RPMI 1640 medium to an OD600 within the range of 0.12 and 0.15 (˜1×10^6 cells/mL). The fungal cells were further diluted by taking 25 μL of fungal cells and adding them to 10 mL of RPMI 1640 medium before adding 100 μL to plate (200 μL total volume). The plates were incubated at 35° C. for 48 h. Visual inspection of the wells for no growth was used to determine the MIC. All compounds were tested in duplicate (TABLES 6 and 7).
Checkerboard assays were done as previously described to determine the fractional inhibitory concentration index (FICI). 2-fold dilutions of the azole drug were made in RPMI 1640 medium lengthwise along the plate. For the antihistamine, 2-fold serial dilutions were made in sterile tubes with RPMI 1640 medium, then aliquoted into the plate. […] The maximal amount was used in the checkerboard assays if complete inhibition was not observed in the MIC assays. Cultures were started by picking a colony from a plate and growing in YEPD medium overnight at 35° C. with shaking at 200 rpm. Cultures were diluted in RPMI 1640 medium to an OD600 between 0.12 and 0.15 (˜1×10^6 cells/mL). Cells were then further diluted by taking 25 μL of cell suspension and adding to 10 mL of RPMI 1640 medium. After the drugs were added to the plate with 100 μL of medium, 100 μL of fungal cells were added. Plates were incubated at 35° C. for 48 h and visual inspection was used to determine wells with no growth. All experiments were carried out in duplicate. The FICI was calculated based on the formula below. The combinational effect of the 2 tested compounds were considered synergistic (SYN) if FICI≤0.5, additive (ADD) if 0.5<FICI≤4, and antagonistic if FICI>4 (TABLES 6-9).

The conditions of data set [4]: aqueous assay medium, from DMSO stock.

Molecules are shown by their SMILES.

On to `CC(C)(C)c1ccc(C(=O)CCCN2CCC(OC(c3ccccc3)c3ccccc3)CC2)cc1` [EBA, ebastine], for which the “CFU/mL through 24 h” value in data set [1] and in data set [2] was 10^6 CFU/mL throughout. Also, the cell survival in the data set on HEK-293 cells, in the data set with HaCaT cells, in the data set on BEAS-2B cells and in the data set on A549 cells was ~0% throughout. Further, in data set [3], the FICI is reported as 0.05.

For the molecule `CC(C)(C)c1ccc(C(O)CCCN2CCC(C(O)(c3ccccc3)c3ccccc3)CC2)cc1` (centres unmarked) [TERF, terfenadine], the “maximal concentration where no precipitation was observed” value in data set [4] is 42.7 µg/mL.
